A short description of this series: pH of aqueous solution after production (Test Example 2). The format is physicochemical. The conditions noted are these: 100 mg dissolved in 10 mL of decarbonated water; pH reproducibility after production; hydrochloride. The protocol:
There was taken 100 mg each of the amorphous powders obtained in Reference Examples 1 to 3 and the A-form crystals obtained in Examples 1 to 3, to which 10 mL of decarbonated water was added for dissolution, followed by measuring the pH.

`CN(C(=O)/C=C/c1ccoc1)[C@@H]1CC[C@@]2(O)[C@H]3Cc4ccc(O)c5c4[C@@]2(CCN3CC2CC2)[C@H]1O5.Cl` [Example 2, 17-cyclopropylmethyl-3,14β-dihydroxy-4,5α-epoxy-6β-[N-methyl-trans-3-(3-furyl)acrylamido]morphinan hydrochloride] gave a pH of 5.4.
In the case of `CN(C(=O)/C=C/c1ccoc1)[C@@H]1CC[C@@]2(O)[C@H]3Cc4ccc(O)c5c4[C@@]2(CCN3CC2CC2)[C@H]1O5.Cl` [Reference Example 2, 17-cyclopropylmethyl-3,14β-dihydroxy-4,5α-epoxy-6β-[N-methyl-trans-3-(3-furyl)acrylamido]morphinan hydrochloride], the pH was 4.7.
As for `CN(C(=O)/C=C/c1ccoc1)[C@@H]1CC[C@@]2(O)[C@H]3Cc4ccc(O)c5c4[C@@]2(CCN3CC2CC2)[C@H]1O5.Cl` [Example 3, 17-cyclopropylmethyl-3,14β-dihydroxy-4,5α-epoxy-6β-[N-methyl-trans-3-(3-furyl)acrylamido]morphinan hydrochloride], the figure is 5.6; as for `CN(C(=O)/C=C/c1ccoc1)[C@@H]1CC[C@@]2(O)[C@H]3Cc4ccc(O)c5c4[C@@]2(CCN3CC2CC2)[C@H]1O5.Cl` [Reference Example 3, 17-cyclopropylmethyl-3,14β-dihydroxy-4,5α-epoxy-6β-[N-methyl-trans-3-(3-furyl)acrylamido]morphinan hydrochloride], 3.5; as for `CN(C(=O)/C=C/c1ccoc1)[C@@H]1CC[C@@]2(O)[C@H]3Cc4ccc(O)c5c4[C@@]2(CCN3CC2CC2)[C@H]1O5.Cl` [Reference Example 1, 17-cyclopropylmethyl-3,14β-dihydroxy-4,5α-epoxy-6β-[N-methyl-trans-3-(3-furyl)acrylamido]morphinan hydrochloride], 3.7.
Compound `CN(C(=O)/C=C/c1ccoc1)[C@@H]1CC[C@@]2(O)[C@H]3Cc4ccc(O)c5c4[C@@]2(CCN3CC2CC2)[C@H]1O5.Cl` [Example 1, 17-cyclopropylmethyl-3,14β-dihydroxy-4,5α-epoxy-6β-[N-methyl-trans-3-(3-furyl)acrylamido]morphinan hydrochloride] yielded a pH of 5.8.

These data come from patent publication US7803942B2, “Crystals of morphinan derivative and process for producing the same” (Toray Industries, Inc., priority 2005, dated 2010).
